Key:
IL-4 = IL-4 level in OVA asthma model; format: in vivo, BALB/c mice
Protocol: (§1) All experimental procedures were carried out in accordance with the NIH Guidelines for the Care and Use of Laboratory Animals. Specific pathogen-free (SPF) male BALB/c mice (6-7 weeks of age, 18-22 grams), routinely screened serologically for relevant respiratory pathogens, were maintained in an animal housing facility for 1 week before use and given access to food and water ad libitum. Animals were randomly assigned to the indicated experimental groups, and sensitized with two intraperitoneal (IP) injections (20 μg ovalbumin (OVA) emulsified in 2 mg aluminum hydroxide (an adjuvant) in 200 μl phosphate buffer saline (PBS), pH 7.4), on days 1 and 10.
(§2) After another week, the animals were challenged by exposure to ovalbumin (OVA) aerosol (1%, w/v, in PBS) for 30 minutes each day on days 17, 18 and 19, in order to elicit an inflammatory reaction in the lungs characterized by airway hyper-responsiveness (AHR), an influx of inflammatory cells (particularly eosinophils), and increased pulmonary levels of various cytokines and transforming growth factors, protein nitration and lipid peroxidation.
(§3) Bronchoalveolar lavage (BAL) fluid (also referred to herein as “BALf”) and bronchial submucosal inflammation are characteristic features of asthma. Mice were euthanized with an overdose of 50 mg/kg pentobarbital and ice-cold phosphate buffer saline (PBS) (0.6 ml) was instilled into the lungs. BAL fluid was obtained by three aspirations via tracheal cannulation, centrifuged, and the supernatant collected and stored at −70° C. Cell pellets were re-suspended in PBS and 100 μl aliquots placed onto slides and centrifuged (200 g, 4° C., 10 minutes) in a cytospin machine. Induction of oxidative stress was evaluated using a 2′,7′-dichlorofluorescein fluorescence assay, and total IgE, IgG2a, panel of cytokines, transforming growth factors, collagen, protein nitration and lipid peroxidation were measured using commercial kits according to the manufacturer's recommendations. A Sircol™ collagen assay kit was obtained from Biocolor Life Sciences Assays, a protein nitration assay kit was obtained from Abcam, and other assay kits were obtained from PeproTech Asia.
The efficacy of oral administration of 3-CP (1 weight percent in chow) during the sensitization period and/or challenge period was then compared to IP injection (˜300 mg/kg, 0.5 hour before the OVA challenge) or intranasal instillation (˜150 mg/kg, 0.5 hour before the OVA and 6 hours later) of 3-CP, as well as to dexamethasone treatment (1 mg/kg, 3 daily IP injections, 0.5 hour prior to the challenge with OVA aerosol).
In order to assess the effect of 3-CP on inflammatory signaling pathways, […] to procedures described hereinabove, upon oral, intranasal or IP administration of 3-CP.

[1] = test system: ovalbumin-induced murine model of asthma; experiment: Lung resistance / airway hyper-responsiveness to methacholine in OVA asthma model; format: in vivo, BALB/c mice
Protocol: as §1, §2
The features of allergic inflammation typically reached their peak a day or two after the final exposure. Mice were then subjected to one of the following treatments: (i) sham-sensitization plus challenge with PBS; (ii) positive control-sensitization plus challenge with OVA; (iii) sensitization plus challenge with OVA and various indicated treatments (e.g., with nitroxide or dexamethasone), including different modes (oral, IP, intranasal, inhalation), time windows (sensitization stage, challenge stage, both stages and after the last challenge), and doses of nitroxide administration.
One day after the final challenge, respiratory activity and airway hyper-responsiveness (AHR) of experimental animals were evaluated. Whole body plethysmographs for enhanced pause (Penh) measurements are often used for assessment of AHR. However, critics have questioned the validity of Penh measurements, which supposedly measure airway obstruction of live non-sedated mice, stating that it is likely to measure the distress of the animal rather than actual obstruction. […] In brief, mice were sedated with an intraperitoneal (IP) injection of xylazine hydrochloride and anaesthetized with IP injection of pentobarbital. Subsequently, the animals were tracheostomized using an 18 gauge cannula, ventilated with a FlexiVent™ apparatus (SCIREQ), and muscle paralysis was induced with pancuronium bromide. The mice were ventilated in a quasi-sinusoidal fashion with the following settings: a tidal volume of 10 ml/kg, maximum inflation pressure of […] (30 cm H2O), a positive end expiratory pressure (PEEP) of 3 millibar and a frequency of 150 per minute. Following an equilibration period of 3 minutes of tidal ventilation, two lung inflations to a transrespiratory pressure of 2.5 millibar were performed and baseline measurements were taken. Airway hyper-responsiveness (AHR) was determined by aerosolizing increasing concentrations of methacholine. After baseline determination of airway resistance, mice were challenged with 0 to 64 mg/mL methacholine nebulized directly into the ventilatory circuit using an AeroNeb™ Lab nebulizer system (SCIREQ). Two models of respiratory mechanics were used to assess lung resistance: a linear 1st-order single compartment model and a constant-phase model. All data points were collected with FlexiVent™ software (SCIREQ). […]

[2] = test system: mice with OVA-induced chronic asthma; experiment: Inflammatory cell counts in BAL fluid, severe (chronic) asthma model; format: in vivo
Protocol: In a longer (chronic) murine model, mice were challenged 3 times a week for 4-5 weeks.
(§4) Bronchoalveolar lavage (BAL) fluid (also referred to herein as “BALf”) and bronchial submucosal inflammation are characteristic features of asthma. Mice were euthanized with an overdose of 50 mg/kg pentobarbital and ice-cold phosphate buffer saline (PBS) (0.6 ml) was instilled into the lungs. BAL fluid was obtained by three aspirations via tracheal cannulation, centrifuged, and the supernatant collected and stored at −70° C. Cell pellets were re-suspended in PBS and 100 μl aliquots placed onto slides and centrifuged (200 g, 4° C., 10 minutes) in a cytospin machine. Induction of oxidative stress was evaluated using a 2′,7′-dichlorofluorescein fluorescence assay, and total IgE, IgG2a, panel of cytokines, transforming growth factors, collagen, protein nitration and lipid peroxidation were measured using commercial kits according to the manufacturer's recommendations. […]
(§5) 3-CP was administered orally (1 weight percent in chow) during the entire experiment, and dexamethasone (Dex) was administered via IP injection (1 mg/kg) one hour before each challenge. Inflammatory cell counts and pulmonary collagen content were then evaluated according to procedures described hereinabove, in order to assess effects on inflammation and remodeling, respectively.

3-nitrotyrosine (3-NT) = experiment: Protein nitration (3-nitrotyrosine) in lung homogenates, OVA asthma model; format: in vivo, mice; conditions: 3-CP via all tested modes of delivery (oral, IP, IN), FIG. 8
Protocol: as §3
In order to determine whether 3-CP reduces protein nitration, a form of cell damage induced by peroxynitrite (an anion generally believed to be formed in vivo by a reaction of superoxide radical and nitric oxide), lung homogenates were assayed for 3-nitrotyrosine (3-NT) levels.

[3] = test system: mice with OVA-induced chronic asthma; experiment: Pulmonary collagen content, severe (chronic) asthma model; format: in vivo; conditions: FIG. 16
Protocol: as §4, §5

[4] = oral, 1 weight percent in chow, FIG. 3
[5] = 3-CP oral, dexamethasone 1 mg/kg IP before each challenge

## CC1(C)CC(C(N)=O)C(C)(C)N1[O] (centres unmarked) [3-CP, 3-Carbamoyl-2,2,5,5-tetramethyl-pyrrolidin-1-oxyl]
IL-4; FIG. 7A and Table 1
  effect on OVA-induced increase in the level of IL-4: inhibited
IL-4; OVA IP-C: 3-CP intraperitoneal during challenge
  IL-4 level: 1.70 ng/mg
IL-4; OVA oral-C: 3-CP oral during challenge
  IL-4 level: 2.03 ng/mg
IL-4; OVA oral-S&C: 3-CP oral during sensitization and challenge
  IL-4 level: 1.65 ng/mg
IL-4; OVA oral-S: 3-CP oral during sensitization
  IL-4 level: 2.44 ng/mg
IL-4; oral administration vs IP injection
  modulating IL-4 level, oral compared with IP 3-CP: consistently more effective than IP injection of 3-CP
[1]; oral 1 weight percent in chow during sensitization and challenge periods, FIG. 6
  lung resistance, oral 3-CP in both periods compared with other regimens: more effective than IP injection or intranasal instillation of 3-CP, oral administration of 3-CP during the sensitization period or challenge period alone, or treatment with dexamethasone
[1]; [4]
  effect on methacholine-induced increase in lung resistance: suppressed methacholine-induced increase in lung resistance
  lung resistance suppression, 3-CP compared with TPL: considerably more effective than TPL
[2]; 3-CP oral 1 weight percent in chow during entire experiment, 4 weeks OVA challenge, FIGS. 15A and 15B
  effect on inflammatory cell counts in BAL fluid: reduced inflammatory cell counts, and especially eosinophil counts
[2]; [5]
  reducing BAL inflammatory cell counts, 3-CP compared with dexamethasone: at least as effective as dexamethasone
3-nitrotyrosine (3-NT)
  effect on pulmonary 3-NT levels: markedly suppressed 3-NT levels as compared to the vehicle control as well as treatment with dexamethasone
[3]; 3-CP oral 1 weight percent in chow during entire experiment
  effect on increase in collagen content of the lung: completely reversed the increase in collagen content
[3]; [5]
  reducing collagen content, 3-CP compared with dexamethasone: more effective than dexamethasone treatment at reducing collagen content

Source: patent publication US10441568B2, “Nitroxide radicals for the treatment of diseases of the respiratory tract” (priority 2015, dated 2019)
